For 8 compounds, TGI results are on record in PubChem BioAssay (NCI).

What all share (test): growth of human tumour cells (NCI), 48 h
The subject of experiment [1] is MDA-N.
For experiment [2], the system named is CCRF-CEM leukemia.
Experiment [3] deals with HCT-15 colon.
Experiment [4] concerns UACC-257 melanoma.
Experiment [5] has as its system SF-539 CNS.
The test system of experiment [6] is ACHN renal.
Experiment [7] has as its system U251 CNS.
The test system of experiment [8] is SK-MEL-28 melanoma.
Experiment [9] relates to HS 578T breast.
The test system of experiment [10] is UACC-62 melanoma.
Experiment [11] concerns MCF7 breast.
For experiment [12], the system named is OVCAR-3 ovarian.
The test system of experiment [13] is HCC-2998 colon.
For experiment [14], the system named is SF-295 CNS.
Experiment [15] deals with SK-MEL-2 melanoma.
For experiment [16], the system named is NCI/ADR-RES ovarian.
The test system of experiment [17] is TK-10 renal.
Experiment [18] concerns SF-268 CNS.

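Growth conditions: 96-well plates. Treatment: test compound, 48 hours, 5 concentrations. Analysis: linear interpolation between bracketing concentrations; unreached endpoints set to highest concentration. TGI is the concentration that stops growth completely.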

For `O=C(NNCc1ccco1)c1cc2ccccc2[nH]1`, the TGI in experiment [1] was above 100 µM; in experiment [2] it was above 100 µM; in experiment [3] it was above 100 µM; in experiment [4] it was above 100 µM; in experiment [5], above 84.4 µM; in experiment [6] it was above 100 µM. The TGI is above 40.9 µM in experiment [7]; above 100 µM in [8]; above 100 µM in experiment [9]; above 100 µM in experiment [10]; above 46.3 µM in experiment [11]; above 95 µM in [12]. Further, the TGI is above 90.1 µM in experiment [13]; above 100 µM in [14]; above 100 µM in experiment [15]; above 80.8 µM in experiment [16]; above 100 µM in experiment [17]; above 100 µM in experiment [18].
In the case of `C=CCN1C(=O)/C(=C/c2ccc(C)cc2)NC1=S`, the TGI in experiment [1], in experiment [2], in experiment [3], in experiment [4], in [5] and in experiment [6] was above 100 µM each time. The TGI in experiment [7], in [8], in [9], in experiment [10], in experiment [11] and in experiment [12] was above 100 µM in each case. Further, the TGI in [13], in experiment [14], in experiment [15], in experiment [16], in [17] and in experiment [18] was above 100 µM each time.
Regarding `O=C1CCCC1C(O)(C(F)(F)F)C(F)(F)F` (centres undefined), the TGI in experiment [1], in [2], in experiment [3], in [4], in [5] and in [6] was above 100 µM each time. For the same compound, the TGI in experiment [7], in experiment [8], in experiment [9], in [10], in experiment [11] and in experiment [12] was above 100 µM each time. Further, the TGI in experiment [13], in [14], in experiment [15], in experiment [16], in experiment [17] and in experiment [18] was above 100 µM throughout.
Consider `Cn1c(Cl)cn2c3nc4ccccc4nc3c(=O)c(C#N)c12`, for which the TGI in [1], in experiment [2], in experiment [3], in experiment [4], in experiment [5] and in [6] was above 100 µM in each case. In addition, the TGI in experiment [7], in experiment [8], in experiment [9], in [10], in experiment [11] and in [12] was above 100 µM each time. The TGI in [13] was above 67.8 µM; in [14], above 100 µM; in experiment [15], above 100 µM; in experiment [16], above 100 µM; in [17], above 100 µM; in experiment [18] it was above 100 µM.
Turning to `COC(=O)[C@@H](NC(=O)N(CCC#N)CCCN(C(=O)N[C@H](Cc1ccccc1)C(=O)OC)c1ccccc1)C(C)C`, the TGI in experiment [1], in experiment [2], in experiment [3], in experiment [4], in [5] and in experiment [6] was above 100 µM throughout. Besides, the TGI in experiment [7], in experiment [8], in [9], in experiment [10], in experiment [11] and in experiment [12] was above 100 µM throughout. For the same compound, the TGI in experiment [13], in [14], in [15], in [16], in experiment [17] and in experiment [18] was above 100 µM each time.
In the case of `COc1ccc(NC(=O)/C(=N/NC(N)=S)C2C(=O)NC(=S)NC2=O)c(OC)c1`, the TGI in [1], in experiment [2], in [3], in [4], in experiment [5] and in experiment [6] was above 100 µM in each case. The TGI in experiment [7], in experiment [8], in experiment [9], in [10], in experiment [11] and in experiment [12] was above 100 µM each time. Also, the TGI in experiment [13], in experiment [14], in experiment [15], in experiment [16], in [17] and in experiment [18] was above 100 µM throughout.
Consider `CC1(C)C/C(=N/O)c2c(nc3ccc4ccccc4c3c2-c2ccc(Cl)cc2)C1`, for which the TGI was above 100 µM in experiment [1]; 27.6 µM in [2]; 41.6 µM in [3]; 91.2 µM in experiment [4]; 36.4 µM in [5]; 19.4 µM in [6]. The TGI in experiment [7] is 24 µM; in [8], above 100 µM; in experiment [9], 76.2 µM; in experiment [10], 37.1 µM; in experiment [11], 24.1 µM; in experiment [12], 24.7 µM. In addition, the TGI was 43.8 µM in experiment [13]; 22.8 µM in experiment [14]; above 100 µM in experiment [15]; 39.3 µM in experiment [16]; 33.9 µM in [17]; 30.1 µM in experiment [18].
On to `NC(=S)N/N=C1/CCCC2CCCC[C@@H]12` (some centres undefined), for which the TGI in experiment [1], in experiment [2], in experiment [3], in experiment [4], in experiment [5] and in experiment [6] was above 100 µM in each case. For the same compound, the TGI in experiment [7], in experiment [8], in experiment [9], in [10], in experiment [11] and in experiment [12] was above 100 µM in each case. Besides, the TGI in [13], in experiment [14], in experiment [15], in [16], in experiment [17] and in experiment [18] was above 100 µM in each case.
